Reference: patent US20220249592A1, “MUSCLE QUALITY IMPROVEMENT AGENT” (AJINOMOTO CO., INC., priority 2019, published 2022)
*1 amine or outer side, *2 acyl side, *3 side chain or, on linkers, in order; H or OH if unused. Where a SMILES comes first, the peptide text is derived from it. γGlu = O=C(O)[C@H](CCC(=O)[*:2])N[*:1]

Legend:
[1] = system: mouse-derived muscle cell line C2C12; experiment: Muscle insulin signal (phosphorylated Akt/total Akt phosphorylation index) in C2C12 myotube cells exposed to palmitic acid (FFA); format: cell-based; conditions: for insulin signal that declined due to FFA: 500 μM
Experimental: Muscle anabolic signal was monitored by insulin signal, and the action of γ-glutamyl peptide on the decline of insulin signal was evaluated. As the γ-glutamyl peptide, the actions of γ-L-glutamyl-L-valine (γEV), γ-L-glutamyl-L-cysteine (γEC), and γ-L-glutamyl-L-valylglycine (γEVG) were evaluated.
The evaluation was performed using an evaluation system in which exposure of the mouse-derived muscle cell line C2C12 to saturated fatty acid results in a decline in insulin signal, as described below.
Using mouse C3H skeletal muscle myoblast cell line (C2C12 cell) (DS Pharma Biomedical Co., Ltd.), the evaluation was performed.
Induction of differentiation into myotube cells (Myotubes) was performed using cells with myoblast passage number of 12 to 18. Myoblasts were seeded in a 12-well (diameter=3 cm) plate at 0.3×10^5 to 0.5×10^5 cells/well. After confirmation that the cell proliferation state reached 90% confluent, the medium was replaced with DMEM supplemented with 2 (w/v) % horse serum (HS) and 1 (w/v) % penicillin-streptomycin-glutamine (2 (w/v) % HS, 1 (w/v) % P/S, 1 (w/v) % Gln/DMEM), and differentiation into myotube cells (Myotubes) was induced. After confirmation of differentiation into myotube cells (Myotubes), a muscle insulin signal evaluation system was constructed, and the action of each of γEV, γEC, and γEVG was evaluated using the constructed evaluation system.
The myotube cells (Myotubes) were cultured overnight (17 hr to 24 hr) at 37° C. in a 0.5 mM palmitic acid (FFA)/0.5 (w/v) % albumin (BSA)/DMEM culture medium in the presence of 5 (v/v) % carbon dioxide.
After culturing overnight, the cells were preincubated for about 2 hr in DMEM (BSA/FFA free), stimulated by incubation (15 min to 20 min) with 100 nM insulin, and the myotube cells were collected (each n=1 to 2). From the collected cells, proteins were extracted with RIPA (Radio-Immunoprecipitation Assay) buffer (Cell Signaling Technologies Inc.), adjusted to a final protein concentration of 0.5 mg/mL, and used as samples.
The expression levels of phosphorylated Akt (pAkt) (Ser473) (#9271S; Cell Signaling Technologies Inc.), and total Akt (#9272S; Cell Signaling Technologies Inc.) in the above-mentioned sample were quantified by the Western blotting (WB) method. The expression level of each protein was quantified using Western blot-chemiluminescent imaging system (Fusion FX) (Vilber-Lourmat Inc.).
Each γ-glutamyl peptide was added simultaneously with FFA, and the muscle quality-improving effect was examined with the recovery of the muscle insulin signal as an index. The final concentration of γEV was adjusted to 100 μM or 300 μM, and the final concentrations of γEC and […] were adjusted to 500 μM. As a positive control, an antioxidative active substance N-acetylcysteine (NAC) 5 mM was used.
From the measurement results of the expression levels of phosphorylated Akt (Ser473) and total Akt, the ratio of phosphorylated Akt and total Akt with insulin stimulation to the ratio of phosphorylated Akt and total Akt without insulin stimulation [(pAkt/Total Akt) Insulin+]/[(pAkt/Total Akt) Insulin-] was determined and shown in FIGS. 1 and 2 as the phosphorylation index (stimulation index). In the Figures, the average values of the calculated phosphorylation indices are shown in bar graphs. The symbols (●, ▪, ▴, ▾, □, Δ, ∇) in the Figures indicate the calculated values of the phosphorylation index obtained for each sample.

[2] = system: insulin receptor substrate-1 (IRS-1); experiment: Muscle insulin sensitivity (IRS-1 serine phosphorylation activity, Western blotting) in rats fed a high-fat diet; format: in vivo, rat; conditions: 0.2 wt % in 30 wt % fat feed plus exercise, 6th week; vs high fat group p<0.01; FIG. 5
Experimental: (§1) Furthermore, the exercise groups (exercise group and exercise+γEV group) were made to perform exercise once a week under the exercise load conditions shown below.
(§2) At the 5th week of feeding the high-fat diet, the exercise function (walking function) was evaluated as follows. At the 6th week of feeding the high-fat diet, an autopsy was performed, and the muscle (tibialis anterior muscle) weight was measured. As described below, the muscle insulin sensitivity was evaluated, the fatty acid composition in muscle diacylglycerol was analyzed, and the muscle function was evaluated.
As an index of muscle insulin sensitivity, insulin receptor substrate-1 (IRS-1) serine phosphorylation activity was evaluated by a Western blotting (WB) method. […]
As the antibodies, anti-Phospho-IRS-1 (Ser307) antibody (Cell Signaling Technologies Inc.), and anti-total IRS-1 antibody (Cell Signaling Technologies Inc.) were used, the expression levels of Phospho-IRS-1 (Ser307) and total IRS-1 were quantified using Western blot-chemiluminescent imaging system (Fusion FX) (Vilber-Lourmat Inc.).
As an index of insulin sensitivity, the ratio of Phospho-IRS-1 (Ser307) expression level to total IRS-1 expression level [(Phospho-IRS-1 (Ser307))/(total IRS-1)] was determined. […]

[3] = system: Sprague-Dawley (SD) male rats; experiment: Amount of diacylglycerol and fatty acid composition in muscle diacylglycerol in rats fed a high-fat diet; format: in vivo, rat; conditions: 0.2 wt % in 30 wt % fat feed plus exercise, 6th week, vs high fat group p<0.01
Experimental: as §1, §2
The amount of diacylglycerol (DAG) in muscle, which is highly related to muscle insulin sensitivity, was analyzed, and the composition of fatty acid contained in DAG was analyzed.
The fat ingredient in the muscle collected during autopsy was extracted according to a chloroform/methanol method, and the DAG fraction was extracted using thin layer chromatography (TLC). […] DAG was quantified at 600 nm by a colorimetric method.
The DAG fraction after development was extracted by a chloroform/methanol method, and fatty acid in DAG was quantified. As fatty acids, 9 kinds of fatty acids (lauric acid, myristic acid, palmitoleic acid, palmitic acid, linolenic acid, linoleic acid, oleic acid, stearic acid, arachidonic acid) mainly contained in the living body were selected and analyzed using gas chromatography. […]

[4] = system: Sprague-Dawley (SD) male rats; experiment: Muscle (tibialis anterior muscle) weight in rats fed a high-fat diet with exercise load; format: in vivo, rat; conditions: 0.2 wt % in 30 wt % fat feed plus exercise, 6th week; compared with exercise only group; FIG. 3
Experimental: as §1, §2
The exercise was performed using the left leg of the rat by applying a local resistance exercise load. A rat under isoflurane anesthesia was placed in an ankle exercise device for small animals (Bioresearch Center K.K.), a skin stimulation electrode was attached to the tibialis anterior muscle, and contraction was caused by electrical stimulation. At the same time, the tibialis anterior muscle was pulled in the direction opposite to the contraction direction, and an extension load was applied. The exercise load setting conditions are shown below.
(i) contraction (electric) load condition: 4 mA to 5 mA, 100 Hz, 1100 msec
(ii) extension load condition: angle of left leg joint was extended from 90° to 135° at rate=100 deg/sec […]

[5] = system: Sprague-Dawley (SD) male rats; experiment: Walking function (stride of walking, length and width) in rats fed a high-fat diet; format: in vivo, rat; conditions: 0.2 wt % in 30 wt % fat feed plus exercise, 5th week; widening of width and narrowing of length; FIG. 4
Experimental: as §1, §2
The walking function was evaluated by walking the rat without an anesthesia and observing the state of walking. India ink was applied to the plantar part of the both legs of the rat, and the rat was made to walk through a cylindrical tunnel with Japanese writing paper laid therein and the stride of walking (width and length) was measured based on the trace of the right leg and the left leg after walking, and the walking function was evaluated.
The respective measurement or evaluation or analysis results of the above-mentioned (2) to (4) are shown by mean±standard error in FIG. 3 to FIG. 7. […]

[6] = system: C57BL/6J mice; experiment: Amount of neutral fat in muscle and palmitic acid in neutral fat in muscle of mice under motility limitation; format: in vivo, mouse; conditions: 0.2 wt % in feed, narrow cage, 28 days, vs motility limitation+lard ingestion group
Text: (§3) Using C57BL/6J mice, the effect of ingestion of γ-glutamyl peptide on the changes in muscle quality and muscle function induced by narrowing the area of the cage used for rearing to limit exercise was investigated.
C57BL/6J mice were grouped into 3 groups shown in Table 2 such that the body weight, grip strength, and lean body weight would be uniform, and one mouse was housed per cage and reared. As cages for rearing mice, a wide cage (width 220 mm×length 320 mm×height 165 mm) and a narrow cage (width 110 mm×length 160 mm×height 130 mm) were used. […]
After the completion of the above-mentioned grip strength measurement, muscles (gastrocnemius muscles) were collected from the mice in each group, and the amount of neutral fat in the muscle, which is one of the indicators of muscle quality, and the amount of palmitic acid in neutral fat in the muscle were measured.
Fat ingredient was extracted according to a chloroform/methanol method from the collected muscle, and the neutral fat content was measured by a colorimetric method at 600 nm, as well as the neutral fat was fractionated and collected by thin layer chromatography (TLC). […] The neutral fat fraction was extracted again by a chloroform/methanol method, and the composition of the fatty acid in the neutral fat was analyzed, and the amount of palmitic acid was measured. The composition of the fatty acid was analyzed by gas chromatography. […]

[7] = system: C57BL/6J mice; experiment: Grip strength (muscle strength) of mice under motility limitation; format: in vivo, mouse; conditions: 0.2 wt % in feed, narrow cage, 28 days; vs motility limitation+lard ingestion group; FIG. 8
Text: as §3
C57BL/6J mice were grouped into 3 groups shown in Table 2 such that the body weight, grip strength, and lean body weight would be uniform, and one mouse was housed per cage and reared. As cages for rearing mice, a wide cage (width 220 mm×length 320 mm×height 165 mm) and a narrow cage (width 110 mm×length 160 mm×height 130 mm) were used. In addition, as an experimental diet, a diet containing 20 wt % casein and 7 wt % lard or a diet containing 20 wt % casein, 7 wt % lard, and 0.2 wt % γ-glutamyl valine (γEV) was supplied.
After rearing for 28 days under the above-mentioned conditions, the grip strength of each mouse was measured and the muscle strength was evaluated.
The grip strength of the mouse was measured using a grip strength meter for small animals (“Chatillon”, Columbus Instruments). […] The aforementioned grip strength was consecutively measured five times, and the average value was calculated and used as the grip strength value of each individual. […]

[8] = added simultaneously with 0.5 mM FFA, FIG. 2

Compound: CC(C)[C@H](NC(=O)CC[C@H](N)C(=O)O)C(=O)NCC(=O)O [γEVG, γ-L-glutamyl-L-valylglycine] (γGlu-Val-Gly-OH)
- insulin signal that declined due to FFA [1, 8]: increase the insulin signal

Compound: N[C@@H](CCC(=O)N[C@@H](CS)C(=O)O)C(=O)O [γEC, γ-L-glutamyl-L-cysteine]
- insulin signal that declined due to FFA [1, 8]: increase the insulin signal

Compound: CC(C)[C@H](NC(=O)CC[C@H](N)C(=O)O)C(=O)O [γEV, γ-L-glutamyl-L-valine]
- decline in muscle insulin sensitivity [(Phospho-IRS-1 (Ser307))/(total IRS-1)] [2]: significantly suppressed
- increase in the amount of DAG in skeletal muscle ([3]; FIG. 6): significantly suppressed
- amount of palmitic acid in muscle DAG ([3]; FIG. 7): significantly lower than in the high fat group
- muscle insulin signal increasing action compared with NAC ([1]; 100 μM vs NAC 5 mM, FIG. 2): superior to that of NAC
- muscle insulin signal increasing action compared with NAC ([1]; 300 μM vs NAC 5 mM, FIG. 1): equal to or higher than that of NAC
- decline in muscle insulin signal due to FFA (phosphorylation index) ([1]; 300 μM, added simultaneously with 0.5 mM FFA, 100 nM insulin stimulation, FIG. 1): recovered
- muscle weight (tibialis anterior muscle, weight ratio to body weight) [4]: increase in the muscle weight tended to be promoted
- stride of walking (length and width) during walking [5]: suppressed to the same levels as in the normal group
- amount of neutral fat in the muscle (gastrocnemius muscle) ([6]; FIG. 9): significantly (p<0.1) small
- amount of palmitic acid in the neutral fat in the muscle (gastrocnemius muscle) ([6]; FIG. 10): significantly (p<0.1) small
- grip strength [7]: significantly (p<0.05) improved
